Measurements from PubChem BioAssay (NCI).
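Test compounds were applied to cells in 96-well plates for 48 hours at 5 doses. GI50 = concentration required for 50% inhibition of growth. TGI: total growth inhibition.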

Assays:
Assay in all cases: NCI tumour cell line growth inhibition, 48 h
UACC-257 melanoma = test system: UACC-257 melanoma
SK-MEL-5 melanoma = test system: SK-MEL-5 melanoma
DU-145 prostate = test system: DU-145 prostate
OVCAR-3 ovarian = test system: OVCAR-3 ovarian
OVCAR-4 ovarian = test system: OVCAR-4 ovarian
CAKI-1 renal = test system: CAKI-1 renal
HOP-92 NSCLC = test system: HOP-92 NSCLC
NCI-H23 lung = test system: NCI-H23 lung
HL-60(TB) leukemia = test system: HL-60(TB) leukemia
PC-3 prostate = test system: PC-3 prostate
RXF 393 renal = test system: RXF 393 renal
RPMI-8226 leukemia = test system: RPMI-8226 leukemia
HT29 colon = test system: HT29 colon
A498 renal = test system: A498 renal
SF-539 CNS = test system: SF-539 CNS
NCI-H522 lung = test system: NCI-H522 lung
COLO 205 colon = test system: COLO 205 colon
HOP-62 NSCLC = test system: HOP-62 NSCLC
UACC-62 melanoma = test system: UACC-62 melanoma
SK-MEL-2 melanoma = test system: SK-MEL-2 melanoma
UO-31 renal = test system: UO-31 renal
786-0 renal = test system: 786-0 renal
SW-620 colon = test system: SW-620 colon
OVCAR-5 ovarian = test system: OVCAR-5 ovarian
OVCAR-8 ovarian = test system: OVCAR-8 ovarian
MCF7 breast = test system: MCF7 breast
T-47D breast = test system: T-47D breast
IGROV1 ovarian = test system: IGROV1 ovarian
SR leukemia = test system: SR leukemia

Compound `OCc1ccc(N(Cc2ccc(F)cc2)CC2CC2)cc1Cl` has a GI50 (UACC-257 melanoma) of 0.228 µM, a TGI (UACC-257 melanoma) of 1.03 µM and a GI50 (SK-MEL-5 melanoma) of 3.72 µM. The TGI (SK-MEL-5 melanoma) was 16.6 µM, the GI50 (DU-145 prostate) was 13.3 µM and the TGI (DU-145 prostate) was 26.4 µM. It also gave a GI50 (OVCAR-3 ovarian) of 1.31 µM, a TGI (OVCAR-3 ovarian) of 4.94 µM and a GI50 (OVCAR-4 ovarian) of 0.511 µM. The TGI (OVCAR-4 ovarian) was 7.34 µM, the GI50 (CAKI-1 renal) was 6.54 µM and the TGI (CAKI-1 renal) was 21.9 µM. The GI50 (HOP-92 NSCLC) was 1.61 µM, the TGI (HOP-92 NSCLC) was 11.3 µM and the GI50 (NCI-H23 lung) was 4.74 µM. It also gave a TGI (NCI-H23 lung) of 20.2 µM, a GI50 (HL-60(TB) leukemia) of 5.06 µM and a TGI (HL-60(TB) leukemia) of 26.3 µM. It also gave a GI50 (PC-3 prostate) of 12.1 µM, a TGI (PC-3 prostate) of 25.7 µM and a GI50 (RXF 393 renal) of 1.29 µM. For the same compound, the TGI (RXF 393 renal) was 8.48 µM, the GI50 (RPMI-8226 leukemia) was 5.47 µM and the TGI (RPMI-8226 leukemia) was 36 µM. For the same compound, the GI50 (HT29 colon) was 6.49 µM, the TGI (HT29 colon) was 20.3 µM and the GI50 (A498 renal) was 0.0363 µM. The TGI (A498 renal) was 0.154 µM, the GI50 (SF-539 CNS) was 14.7 µM and the TGI (SF-539 CNS) was 28.2 µM. It also gave a GI50 (NCI-H522 lung) of 11.5 µM, a TGI (NCI-H522 lung) of 26.3 µM and a GI50 (COLO 205 colon) of 5.4 µM. The TGI (COLO 205 colon) was 17.4 µM, the GI50 (HOP-62 NSCLC) was 3.09 µM and the TGI (HOP-62 NSCLC) was 16.2 µM. It also gave a GI50 (UACC-62 melanoma) of 0.263 µM, a TGI (UACC-62 melanoma) of 1.74 µM and a GI50 (SK-MEL-2 melanoma) of 5.39 µM. It also gave a TGI (SK-MEL-2 melanoma) of 19 µM, a GI50 (UO-31 renal) of 3.43 µM and a TGI (UO-31 renal) of 15.6 µM. The GI50 (786-0 renal) was 6.8 µM, the TGI (786-0 renal) was 21.3 µM and the GI50 (SW-620 colon) was 2.38 µM. The TGI (SW-620 colon) was 16.2 µM, the GI50 (OVCAR-5 ovarian) was 0.191 µM and the TGI (OVCAR-5 ovarian) was 0.794 µM. For the same compound, the GI50 (OVCAR-8 ovarian) was 11.8 µM, the TGI (OVCAR-8 ovarian) was 25.3 µM and the GI50 (MCF7 breast) was 0.585 µM. For the same compound, the TGI (MCF7 breast) was 12.6 µM, the GI50 (T-47D breast) was 0.271 µM and the TGI (T-47D breast) was 2.86 µM. It also gave a GI50 (IGROV1 ovarian) of 0.176 µM, a TGI (IGROV1 ovarian) of 1.19 µM and a GI50 (SR leukemia) of 13.4 µM.
